From patent US8802597B2, “Herbicidal pyrimidines” (E I du Pont de Nemours and Company, priority 2003, dated 2014)

Legend:
Assay in all cases: Test D pre/postemergence
Format in all cases: in vivo
Settings in all cases: scale 0 to 100 (100 = complete control)
[1] = system: common chickweed (Stellaria media)
Text: (§1) Seeds of plant species selected from catchweed bedstraw (galium; Galium aparine), common chickweed (Stellaria media), kochia (Kochia scoparia), lambsquarters (Chenopodium album), pigweed (Amaranthus retroflexus), Russian thistle (Salsola kali), wild buckwheat (Polygonum convolvulus), wild mustard (Sinapis arvensis), winter barley (Hordeum vulgare), and wheat (Triticum aestivum) were planted and treated preemergence with test chemicals formulated in a non-phytotoxic solvent mixture which included a surfactant.
(§2) At the same time, plants selected from these crop and weed species were treated with postemergence applications of some of the test chemicals formulated in the same manner. Plants ranged in height from 2 to 18 cm (1- to 4-leaf stage) for postemergence treatments. Treated plants and controls were maintained in a controlled growth environment for 15 to 25 days after which time all species were compared to controls and visually evaluated. Plant response ratings, summarized in Table D, are based on a scale of 0 to 100 where 0 is no effect and 100 is complete control. A dash (-) response means no test result.

[2] = system: wild buckwheat (Polygonum convolvulus)
Text: as §1, §2

kochia (Kochia scoparia) = system: kochia (Kochia scoparia)
Text: as §1, §2

[3] = system: wild mustard (Sinapis arvensis)
Text: as §1, §2

[4] = system: pigweed (Amaranthus retroflexus)
Text: as §1, §2

[5] = system: Russian thistle (Salsola kali)
Text: as §1, §2

[6] = system: lambsquarters (Chenopodium album)
Text: as §1, §2

[7] = system: wheat (Triticum aestivum)
Text: as §1, §2

[8] = system: catchweed bedstraw (galium; Galium aparine)
Text: as §1, §2

COC(=O)c1nc(C2CC2)nc(N)c1Br [Compound 2, methyl 6-amino-5-bromo-2-cyclopropyl-4-pyrimidinecarboxylate]
45: Plant response rating, Buckwheat, Wild ([2]; Postemergence, 16 g ai/ha) | Plant response rating, Buckwheat, Wild ([2]; Preemergence, 16 g ai/ha) | Plant response rating, Wheat ([7]; Preemergence, 16 g ai/ha)
50: Plant response rating, Mustard, Wild ([3]; Preemergence, 16 g ai/ha)
60: Plant response rating, Chickweed ([1]; Postemergence, 16 g ai/ha) | Plant response rating, Chickweed ([1]; Postemergence, 31 g ai/ha) | Plant response rating, Chickweed ([1]; Preemergence, 16 g ai/ha) | Plant response rating, Chickweed ([1]; Preemergence, 31 g ai/ha) | Plant response rating, Lambsquarters ([6]; Postemergence, 16 g ai/ha) | Plant response rating, Wheat ([7]; Preemergence, 31 g ai/ha)
70: Plant response rating, Kochia (kochia (Kochia scoparia); Preemergence, 31 g ai/ha) | Plant response rating, Mustard, Wild ([3]; Postemergence, 62 g ai/ha) | Plant response rating, Mustard, Wild ([3]; Preemergence, 31 g ai/ha) | Plant response rating, Mustard, Wild ([3]; Preemergence, 62 g ai/ha) | Plant response rating, Pigweed ([4]; Preemergence, 31 g ai/ha) | Plant response rating, Wheat ([7]; Postemergence, 16 g ai/ha) | Plant response rating, Wheat ([7]; Postemergence, 31 g ai/ha) | Plant response rating, Wheat ([7]; Preemergence, 62 g ai/ha) | Plant response rating, Wheat ([7]; Preemergence, 125 g ai/ha)
80: Plant response rating, Buckwheat, Wild ([2]; Preemergence, 62 g ai/ha) | Plant response rating, Mustard, Wild ([3]; Postemergence, 125 g ai/ha) | Plant response rating, Galium ([8]; Preemergence, 16 g ai/ha)
90: Plant response rating, Chickweed ([1]; Preemergence, 125 g ai/ha) | Plant response rating, Buckwheat, Wild ([2]; Postemergence, 62 g ai/ha) | Plant response rating, Galium ([8]; Preemergence, 31 g ai/ha)
95: Plant response rating, Buckwheat, Wild ([2]; Postemergence, 125 g ai/ha) | Plant response rating, Russian Thistle ([5]; Postemergence, 62 g ai/ha) | Plant response rating, Lambsquarters ([6]; Preemergence, 62 g ai/ha)
75: Plant response rating, Chickweed ([1]; Preemergence, 62 g ai/ha) | Plant response rating, Kochia (kochia (Kochia scoparia); Postemergence, 16 g ai/ha) | Plant response rating, Galium ([8]; Postemergence, 16 g ai/ha)
55: Plant response rating, Kochia (kochia (Kochia scoparia); Preemergence, 16 g ai/ha)
85: Plant response rating, Chickweed ([1]; Postemergence, 62 g ai/ha) | Plant response rating, Chickweed ([1]; Postemergence, 125 g ai/ha) | Plant response rating, Buckwheat, Wild ([2]; Preemergence, 125 g ai/ha) | Plant response rating, Mustard, Wild ([3]; Preemergence, 125 g ai/ha) | Plant response rating, Pigweed ([4]; Postemergence, 31 g ai/ha) | Plant response rating, Pigweed ([4]; Preemergence, 62 g ai/ha) | Plant response rating, Russian Thistle ([5]; Postemergence, 31 g ai/ha) | Plant response rating, Russian Thistle ([5]; Preemergence, 16 g ai/ha) | Plant response rating, Lambsquarters ([6]; Preemergence, 31 g ai/ha)
100: Plant response rating, Kochia (kochia (Kochia scoparia); Postemergence, 31 g ai/ha) | Plant response rating, Kochia (kochia (Kochia scoparia); Postemergence, 62 g ai/ha) | Plant response rating, Kochia (kochia (Kochia scoparia); Postemergence, 125 g ai/ha) | Plant response rating, Kochia (kochia (Kochia scoparia); Preemergence, 62 g ai/ha) | Plant response rating, Kochia (kochia (Kochia scoparia); Preemergence, 125 g ai/ha) | Plant response rating, Pigweed ([4]; Postemergence, 62 g ai/ha) | Plant response rating, Pigweed ([4]; Postemergence, 125 g ai/ha) | Plant response rating, Pigweed ([4]; Preemergence, 125 g ai/ha) | Plant response rating, Russian Thistle ([5]; Postemergence, 125 g ai/ha) | Plant response rating, Russian Thistle ([5]; Preemergence, 31 g ai/ha) | Plant response rating, Russian Thistle ([5]; Preemergence, 62 g ai/ha) | Plant response rating, Russian Thistle ([5]; Preemergence, 125 g ai/ha) | Plant response rating, Lambsquarters ([6]; Postemergence, 31 g ai/ha) | Plant response rating, Lambsquarters ([6]; Postemergence, 62 g ai/ha) | Plant response rating, Lambsquarters ([6]; Postemergence, 125 g ai/ha) | Plant response rating, Lambsquarters ([6]; Preemergence, 125 g ai/ha) | Plant response rating, Wheat ([7]; Postemergence, 62 g ai/ha) | Plant response rating, Wheat ([7]; Postemergence, 125 g ai/ha) | Plant response rating, Galium ([8]; Postemergence, 31 g ai/ha) | Plant response rating, Galium ([8]; Postemergence, 62 g ai/ha) | Plant response rating, Galium ([8]; Postemergence, 125 g ai/ha) | Plant response rating, Galium ([8]; Preemergence, 125 g ai/ha)
98: Plant response rating, Galium ([8]; Preemergence, 62 g ai/ha)
65: Plant response rating, Buckwheat, Wild ([2]; Postemergence, 31 g ai/ha) | Plant response rating, Buckwheat, Wild ([2]; Preemergence, 31 g ai/ha) | Plant response rating, Mustard, Wild ([3]; Postemergence, 16 g ai/ha) | Plant response rating, Mustard, Wild ([3]; Postemergence, 31 g ai/ha) | Plant response rating, Pigweed ([4]; Postemergence, 16 g ai/ha) | Plant response rating, Pigweed ([4]; Preemergence, 16 g ai/ha) | Plant response rating, Russian Thistle ([5]; Postemergence, 16 g ai/ha)

Nc1nc(C2CC2)nc(C=O)c1Br [Compound 26]
95: Plant response rating, Buckwheat, Wild ([2]; Preemergence, 250 g ai/ha)
100: Plant response rating, Pigweed ([4]; Preemergence, 250 g ai/ha) | Plant response rating, Russian Thistle ([5]; Preemergence, 250 g ai/ha) | Plant response rating, Galium ([8]; Preemergence, 250 g ai/ha)
70: Plant response rating, Pigweed ([4]; Postemergence, 250 g ai/ha) | Plant response rating, Galium ([8]; Postemergence, 125 g ai/ha)
35: Plant response rating, Buckwheat, Wild ([2]; Postemergence, 125 g ai/ha) | Plant response rating, Kochia (kochia (Kochia scoparia); Postemergence, 125 g ai/ha) | Plant response rating, Wheat ([7]; Preemergence, 250 g ai/ha)
55: Plant response rating, Chickweed ([1]; Postemergence, 250 g ai/ha) | Plant response rating, Buckwheat, Wild ([2]; Postemergence, 250 g ai/ha) | Plant response rating, Kochia (kochia (Kochia scoparia); Postemergence, 250 g ai/ha) | Plant response rating, Kochia (kochia (Kochia scoparia); Preemergence, 125 g ai/ha)
40: Plant response rating, Russian Thistle ([5]; Postemergence, 125 g ai/ha) | Plant response rating, Russian Thistle ([5]; Postemergence, 250 g ai/ha) | Plant response rating, Lambsquarters ([6]; Postemergence, 125 g ai/ha)
20: Plant response rating, Wheat ([7]; Postemergence, 250 g ai/ha)
85: Plant response rating, Galium ([8]; Postemergence, 250 g ai/ha) | Plant response rating, Galium ([8]; Preemergence, 125 g ai/ha)
65: Plant response rating, Chickweed ([1]; Preemergence, 250 g ai/ha) | Plant response rating, Buckwheat, Wild ([2]; Preemergence, 125 g ai/ha) | Plant response rating, Mustard, Wild ([3]; Preemergence, 125 g ai/ha) | Plant response rating, Mustard, Wild ([3]; Preemergence, 250 g ai/ha) | Plant response rating, Pigweed ([4]; Preemergence, 125 g ai/ha) | Plant response rating, Lambsquarters ([6]; Preemergence, 250 g ai/ha)
75: Plant response rating, Kochia (kochia (Kochia scoparia); Preemergence, 250 g ai/ha) | Plant response rating, Mustard, Wild ([3]; Postemergence, 250 g ai/ha)
60: Plant response rating, Chickweed ([1]; Preemergence, 125 g ai/ha) | Plant response rating, Mustard, Wild ([3]; Postemergence, 125 g ai/ha) | Plant response rating, Pigweed ([4]; Postemergence, 125 g ai/ha) | Plant response rating, Lambsquarters ([6]; Preemergence, 125 g ai/ha)
50: Plant response rating, Lambsquarters ([6]; Postemergence, 250 g ai/ha)
25: Plant response rating, Wheat ([7]; Preemergence, 125 g ai/ha)
45: Plant response rating, Chickweed ([1]; Postemergence, 125 g ai/ha) | Plant response rating, Wheat ([7]; Postemergence, 125 g ai/ha)
